Results from the NIST ThermoML archive (doi:10.1016/j.jct.2011.03.019).
± gives the expanded uncertainty stated by the source.

Conditions: Liquid, Vibrating tube method

Compound `CCCC[n+]1cccc(C)c1.F[B-](F)(F)F` [1-butyl-3-methylpyridinium tetrafluoroborate] has a mass density (283.12 K, 2024 kPa) of 1194.21 ± 2.7 kg/m3, a mass density (283.13 K, 5410 kPa) of 1195.69 ± 2.7 kg/m3 and a mass density (283.14 K, 10608 kPa) of 1197.94 ± 2.7 kg/m3. For the same compound, the mass density (283.16 K, 101 kPa) was 1192.91 ± 2.6 kg/m3, the mass density (283.16 K, 20395 kPa) was 1202.09 ± 2.7 kg/m3 and the mass density (283.16 K, 29989 kPa) was 1206.06 ± 2.8 kg/m3. The mass density (283.16 K, 40399 kPa) was 1210.24 ± 2.8 kg/m3, the mass density (283.16 K, 50021 kPa) was 1214 ± 2.9 kg/m3 and the mass density (283.16 K, 59880 kPa) was 1217.75 ± 3 kg/m3. It also gave a mass density (283.16 K, 70001 kPa) of 1221.48 ± 3 kg/m3, a mass density (283.16 K, 80055 kPa) of 1225.07 ± 3.1 kg/m3 and a mass density (283.16 K, 89979 kPa) of 1228.5 ± 3.1 kg/m3. The mass density (283.16 K, 99226 kPa) was 1231.6 ± 3.2 kg/m3, the mass density (293.13 K, 2373 kPa) was 1187.65 ± 2.6 kg/m3 and the mass density (293.15 K, 101 kPa) was 1185.85 ± 2.6 kg/m3. It also gave a mass density (293.15 K, 5192 kPa) of 1188.92 ± 2.6 kg/m3, a mass density (293.15 K, 19915 kPa) of 1195.44 ± 2.7 kg/m3 and a mass density (293.15 K, 29975 kPa) of 1199.74 ± 2.8 kg/m3. The mass density (293.15 K, 40033 kPa) was 1203.9 ± 2.8 kg/m3, the mass density (293.15 K, 49990 kPa) was 1207.91 ± 2.9 kg/m3 and the mass density (293.15 K, 60026 kPa) was 1211.82 ± 2.9 kg/m3. It also gave a mass density (293.15 K, 69993 kPa) of 1215.58 ± 3 kg/m3, a mass density (293.15 K, 90002 kPa) of 1222.75 ± 3.1 kg/m3 and a mass density (293.15 K, 99008 kPa) of 1225.82 ± 3.2 kg/m3. For the same compound, the mass density (293.16 K, 79917 kPa) was 1219.2 ± 3 kg/m3, the mass density (293.17 K, 10105 kPa) was 1191.13 ± 2.7 kg/m3 and the mass density (298.13 K, 101 kPa) was 1182.41 ± 2.6 kg/m3. For the same compound, the mass density (298.15 K, 1023 kPa) was 1183.65 ± 2.6 kg/m3, the mass density (298.15 K, 5014 kPa) was 1185.49 ± 2.6 kg/m3 and the mass density (298.15 K, 10024 kPa) was 1187.78 ± 2.7 kg/m3. The mass density (298.15 K, 19956 kPa) was 1192.22 ± 2.7 kg/m3, the mass density (298.15 K, 29784 kPa) was 1196.48 ± 2.8 kg/m3 and the mass density (298.15 K, 39954 kPa) was 1200.76 ± 2.8 kg/m3. For the same compound, the mass density (298.15 K, 49921 kPa) was 1204.82 ± 2.9 kg/m3, the mass density (298.15 K, 59784 kPa) was 1208.71 ± 2.9 kg/m3 and the mass density (298.15 K, 69521 kPa) was 1212.43 ± 3 kg/m3. The mass density (298.15 K, 79326 kPa) was 1216.05 ± 3 kg/m3, the mass density (298.15 K, 89784 kPa) was 1219.77 ± 3.1 kg/m3 and the mass density (298.15 K, 99965 kPa) was 1223.26 ± 3.2 kg/m3. It also gave a mass density (313.13 K, 101 kPa) of 1172.19 ± 2.6 kg/m3, a mass density (313.13 K, 10051 kPa) of 1177.79 ± 2.6 kg/m3 and a mass density (313.15 K, 2471 kPa) of 1174.15 ± 2.6 kg/m3. The mass density (313.15 K, 5142 kPa) was 1175.44 ± 2.6 kg/m3, the mass density (313.15 K, 39901 kPa) was 1191.32 ± 2.8 kg/m3 and the mass density (313.15 K, 50020 kPa) was 1195.6 ± 2.8 kg/m3. It also gave a mass density (313.15 K, 59990 kPa) of 1199.68 ± 2.9 kg/m3, a mass density (313.15 K, 70046 kPa) of 1203.63 ± 2.9 kg/m3 and a mass density (313.15 K, 79830 kPa) of 1207.34 ± 3 kg/m3. It also gave a mass density (313.16 K, 30021 kPa) of 1186.99 ± 2.7 kg/m3, a mass density (313.16 K, 89989 kPa) of 1211.04 ± 3 kg/m3 and a mass density (313.17 K, 19949 kPa) of 1182.42 ± 2.7 kg/m3. The mass density (313.17 K, 99194 kPa) was 1214.26 ± 3.1 kg/m3, the mass density (323.14 K, 101 kPa) was 1165.48 ± 2.6 kg/m3 and the mass density (333.13 K, 2503 kPa) was 1160.47 ± 2.6 kg/m3. For the same compound, the mass density (333.14 K, 101 kPa) was 1158.81 ± 2.5 kg/m3, the mass density (333.14 K, 39760 kPa) was 1178.53 ± 2.7 kg/m3 and the mass density (333.15 K, 20056 kPa) was 1169.28 ± 2.6 kg/m3. The mass density (333.15 K, 29979 kPa) was 1174.02 ± 2.7 kg/m3, the mass density (333.15 K, 79731 kPa) was 1195.25 ± 2.9 kg/m3 and the mass density (333.15 K, 89986 kPa) was 1199.09 ± 3 kg/m3. For the same compound, the mass density (333.15 K, 99773 kPa) was 1202.59 ± 3 kg/m3, the mass density (333.16 K, 5448 kPa) was 1161.99 ± 2.6 kg/m3 and the mass density (333.16 K, 50021 kPa) was 1183.09 ± 2.8 kg/m3. It also gave a mass density (333.16 K, 70003 kPa) of 1191.43 ± 2.9 kg/m3, a mass density (333.17 K, 10715 kPa) of 1164.66 ± 2.6 kg/m3 and a mass density (333.17 K, 60243 kPa) of 1187.44 ± 2.8 kg/m3. It also gave a mass density (343.14 K, 101 kPa) of 1152.1 ± 2.5 kg/m3, a mass density (353.12 K, 6509 kPa) of 1148.81 ± 2.5 kg/m3 and a mass density (353.13 K, 8955 kPa) of 1150.12 ± 2.5 kg/m3. For the same compound, the mass density (353.14 K, 2790 kPa) was 1146.79 ± 2.5 kg/m3, the mass density (353.15 K, 101 kPa) was 1145.3 ± 2.5 kg/m3 and the mass density (353.15 K, 90011 kPa) was 1186.9 ± 2.9 kg/m3. The mass density (353.15 K, 99259 kPa) was 1190.28 ± 3 kg/m3, the mass density (353.16 K, 29979 kPa) was 1160.91 ± 2.6 kg/m3 and the mass density (353.16 K, 39909 kPa) was 1165.7 ± 2.7 kg/m3. For the same compound, the mass density (353.16 K, 50013 kPa) was 1170.38 ± 2.7 kg/m3, the mass density (353.16 K, 60153 kPa) was 1174.86 ± 2.8 kg/m3 and the mass density (353.16 K, 69979 kPa) was 1179.02 ± 2.8 kg/m3. The mass density (353.16 K, 80426 kPa) was 1183.23 ± 2.9 kg/m3, the mass density (353.17 K, 21342 kPa) was 1156.58 ± 2.6 kg/m3 and the mass density (363.14 K, 101 kPa) was 1138.4 ± 2.5 kg/m3. For the same compound, the mass density (373.12 K, 60192 kPa) was 1162.13 ± 2.7 kg/m3, the mass density (373.13 K, 50003 kPa) was 1157.47 ± 2.7 kg/m3 and the mass density (373.14 K, 39996 kPa) was 1152.66 ± 2.6 kg/m3. The mass density (373.14 K, 70039 kPa) was 1166.42 ± 2.8 kg/m3, the mass density (373.14 K, 99035 kPa) was 1177.8 ± 2.9 kg/m3 and the mass density (373.15 K, 5373 kPa) was 1134.29 ± 2.5 kg/m3. The mass density (373.15 K, 29979 kPa) was 1147.62 ± 2.6 kg/m3, the mass density (373.15 K, 90014 kPa) was 1174.46 ± 2.9 kg/m3 and the mass density (373.16 K, 2495 kPa) was 1132.64 ± 2.5 kg/m3. For the same compound, the mass density (373.16 K, 10198 kPa) was 1137.01 ± 2.5 kg/m3, the mass density (373.16 K, 20336 kPa) was 1142.55 ± 2.6 kg/m3 and the mass density (373.16 K, 80221 kPa) was 1170.63 ± 2.8 kg/m3. The mass density (393.15 K, 10222 kPa) was 1123.08 ± 2.5 kg/m3, the mass density (393.15 K, 20024 kPa) was 1128.69 ± 2.5 kg/m3 and the mass density (393.15 K, 30013 kPa) was 1134.16 ± 2.5 kg/m3. It also gave a mass density (393.15 K, 89993 kPa) of 1161.76 ± 2.8 kg/m3, a mass density (393.15 K, 99831 kPa) of 1165.43 ± 2.9 kg/m3 and a mass density (393.16 K, 40133 kPa) of 1139.44 ± 2.6 kg/m3. For the same compound, the mass density (393.16 K, 49970 kPa) was 1144.34 ± 2.6 kg/m3, the mass density (393.16 K, 60110 kPa) was 1149.13 ± 2.7 kg/m3 and the mass density (393.16 K, 70029 kPa) was 1153.57 ± 2.7 kg/m3. It also gave a mass density (393.16 K, 80159 kPa) of 1157.85 ± 2.8 kg/m3, a mass density (393.17 K, 2485 kPa) of 1118.49 ± 2.5 kg/m3 and a mass density (393.17 K, 5300 kPa) of 1120.18 ± 2.5 kg/m3.
